Measured values: the NIST ThermoML archive (doi:10.1016/j.jct.2010.06.009)

Test: activity coefficient (dimensionless); of the first substance listed, at infinite dilution; xn = mol fraction of the nth substance listed
Details: 101 kPa, Liquid, Chromatography, x1 = 0

Cc1ccccc1C [1,2-dimethylbenzene] + CCCCC[n+]1ccccc1.O=S(=O)([N-]S(=O)(=O)C(F)(F)F)C(F)(F)F
Details	activity coefficient
303.1 K	1.57
312.8 K	1.61
323.4 K	1.63
333.4 K	1.65
343.3 K	1.66
353.5 K	1.69

Cc1ccccc1C [1,2-dimethylbenzene] + CCCC[n+]1ccccc1.O=S(=O)([N-]S(=O)(=O)C(F)(F)F)C(F)(F)F
Details	activity coefficient
302.8 K	2.22
312.5 K	2.25
323.3 K	2.26
333.3 K	2.28
343.2 K	2.28
353.2 K	2.3

Cc1ccccc1C [1,2-dimethylbenzene] + CC[n+]1ccccc1.O=S(=O)([N-]S(=O)(=O)C(F)(F)F)C(F)(F)F
Details	activity coefficient
303.1 K	2.66
313.2 K	2.67
323.3 K	2.68
333.1 K	2.7
343.1 K	2.7
353.1 K	2.71

Cc1cccc(C)c1 [1,3-dimethylbenzene] + CCCCC[n+]1ccccc1.O=S(=O)([N-]S(=O)(=O)C(F)(F)F)C(F)(F)F
Details	activity coefficient
303 K	1.76
312.8 K	1.8
323.5 K	1.81
333.4 K	1.84
343.3 K	1.87
353.3 K	1.91

Cc1cccc(C)c1 [1,3-dimethylbenzene] + CCCC[n+]1ccccc1.O=S(=O)([N-]S(=O)(=O)C(F)(F)F)C(F)(F)F
Details	activity coefficient
302.8 K	2.47
312.5 K	2.49
323.3 K	2.5
333.3 K	2.51
343.1 K	2.52
353.3 K	2.53

Cc1cccc(C)c1 [1,3-dimethylbenzene] + CC[n+]1ccccc1.O=S(=O)([N-]S(=O)(=O)C(F)(F)F)C(F)(F)F
Details	activity coefficient
302.8 K	3.07
313.2 K	3.09
323.2 K	3.1
333.1 K	3.11
343 K	3.12
353.1 K	3.13

Cc1ccc(C)cc1 [1,4-dimethylbenzene] + CCCCC[n+]1ccccc1.O=S(=O)([N-]S(=O)(=O)C(F)(F)F)C(F)(F)F
Details	activity coefficient
303.1 K	1.74
312.7 K	1.79
323.5 K	1.81
333.4 K	1.84
343.3 K	1.87
353.3 K	1.91

Cc1ccc(C)cc1 [1,4-dimethylbenzene] + CCCC[n+]1ccccc1.O=S(=O)([N-]S(=O)(=O)C(F)(F)F)C(F)(F)F
Details	activity coefficient
302.8 K	2.45
312.5 K	2.48
323.3 K	2.49
333.3 K	2.52
343.1 K	2.54
353.3 K	2.54

Cc1ccc(C)cc1 [1,4-dimethylbenzene] + CC[n+]1ccccc1.O=S(=O)([N-]S(=O)(=O)C(F)(F)F)C(F)(F)F
Details	activity coefficient
302.6 K	3.04
313.3 K	3.05
323.2 K	3.07
333.1 K	3.08
343 K	3.09
353.1 K	3.11

C=CCCCCCCCC [1-decene] + CCCCC[n+]1ccccc1.O=S(=O)([N-]S(=O)(=O)C(F)(F)F)C(F)(F)F
Details	activity coefficient
303.1 K	26.4
312.6 K	25.1
322.6 K	23.8
333.4 K	22.1
343.4 K	20.6
353.4 K	19.3

C=CCCCCCCCC [1-decene] + CCCC[n+]1ccccc1.O=S(=O)([N-]S(=O)(=O)C(F)(F)F)C(F)(F)F
Details	activity coefficient
302.5 K	46.7
313.2 K	40.1
322.8 K	39.6
332.8 K	34.6
342.9 K	31.2
353 K	28.1

C=CCCCCCCCC [1-decene] + CC[n+]1ccccc1.O=S(=O)([N-]S(=O)(=O)C(F)(F)F)C(F)(F)F
Details	activity coefficient
302.9 K	85.8
313.2 K	77.2
323.2 K	70
332.8 K	62.7
342.9 K	54.5
353 K	46.9

C#CCCCCC [1-heptyne] + CCCCC[n+]1ccccc1.O=S(=O)([N-]S(=O)(=O)C(F)(F)F)C(F)(F)F
Details	activity coefficient
302.8 K	4.17
313.6 K	4
323.4 K	3.87
333.3 K	3.74
343.3 K	3.58
353.3 K	3.42

C#CCCCCC [1-heptyne] + CCCC[n+]1ccccc1.O=S(=O)([N-]S(=O)(=O)C(F)(F)F)C(F)(F)F
Details	activity coefficient
302.8 K	5.63
313.3 K	5.49
323.2 K	5.29
333.1 K	5.03
343.1 K	4.79
353.1 K	4.58

C#CCCCCC [1-heptyne] + CC[n+]1ccccc1.O=S(=O)([N-]S(=O)(=O)C(F)(F)F)C(F)(F)F
Details	activity coefficient
302.5 K	8.41
313.2 K	7.96
323 K	7.5
333 K	7.06
342.9 K	6.53
353 K	5.92

C#CCCCC [1-hexyne] + CCCCC[n+]1ccccc1.O=S(=O)([N-]S(=O)(=O)C(F)(F)F)C(F)(F)F
Details	activity coefficient
302.8 K	2.92
313.6 K	2.82
323.4 K	2.66
333.3 K	2.53
343.3 K	2.42
353.3 K	2.29

C#CCCCC [1-hexyne] + CCCC[n+]1ccccc1.O=S(=O)([N-]S(=O)(=O)C(F)(F)F)C(F)(F)F
Details	activity coefficient
303.5 K	3.92
313.3 K	3.72
323.2 K	3.5
333.1 K	3.29
343.1 K	3.04
353.1 K	2.82

C#CCCCC [1-hexyne] + CC[n+]1ccccc1.O=S(=O)([N-]S(=O)(=O)C(F)(F)F)C(F)(F)F
Details	activity coefficient
302.5 K	5.26
313.2 K	4.95
323 K	4.63
333 K	4.18
342.9 K	3.88
353 K	3.47

C#CCCCCCC [1-octyne] + CCCCC[n+]1ccccc1.O=S(=O)([N-]S(=O)(=O)C(F)(F)F)C(F)(F)F
Details	activity coefficient
302.8 K	5.62
313.6 K	5.47
323.4 K	5.34
333.3 K	5.22
343.4 K	5.07
353.3 K	4.94

C#CCCCCCC [1-octyne] + CCCC[n+]1ccccc1.O=S(=O)([N-]S(=O)(=O)C(F)(F)F)C(F)(F)F
Details	activity coefficient
302.6 K	8.1
313.4 K	7.82
323.2 K	7.6
333.1 K	7.34
343.1 K	7.05
353.1 K	6.8

C#CCCCCCC [1-octyne] + CC[n+]1ccccc1.O=S(=O)([N-]S(=O)(=O)C(F)(F)F)C(F)(F)F
Details	activity coefficient
302.5 K	12.9
313.2 K	12.3
323 K	11.8
333 K	11.1
342.9 K	10.4
353 K	9.74

C#CCCC [1-pentyne] + CCCCC[n+]1ccccc1.O=S(=O)([N-]S(=O)(=O)C(F)(F)F)C(F)(F)F
Details	activity coefficient
302.8 K	2.01
313.5 K	1.88
323.4 K	1.75
333.3 K	1.62
343.2 K	1.5
353.4 K	1.39

C#CCCC [1-pentyne] + CCCC[n+]1ccccc1.O=S(=O)([N-]S(=O)(=O)C(F)(F)F)C(F)(F)F
Details	activity coefficient
302.2 K	2.67
313.4 K	2.4
323.2 K	2.23
333.1 K	2.04
343 K	1.88
353.1 K	1.68

C#CCCC [1-pentyne] + CC[n+]1ccccc1.O=S(=O)([N-]S(=O)(=O)C(F)(F)F)C(F)(F)F
Details	activity coefficient
302.5 K	3.2
313.2 K	3
323 K	2.73
333 K	2.52
342.9 K	2.23
353.1 K	2.03

c1ccccc1 [benzene] + CCCCC[n+]1ccccc1.O=S(=O)([N-]S(=O)(=O)C(F)(F)F)C(F)(F)F
Details	activity coefficient
303.2 K	0.98
312.6 K	0.99
323.2 K	1.01
333.1 K	1.02
343.3 K	1.03
353.5 K	1.04

c1ccccc1 [benzene] + CCCC[n+]1ccccc1.O=S(=O)([N-]S(=O)(=O)C(F)(F)F)C(F)(F)F
Details	activity coefficient
302.8 K	1.33
312.6 K	1.34
323.2 K	1.35
333.2 K	1.35
343.1 K	1.35
353.3 K	1.36

c1ccccc1 [benzene] + CC[n+]1ccccc1.O=S(=O)([N-]S(=O)(=O)C(F)(F)F)C(F)(F)F
Details	activity coefficient
302.6 K	1.5
313 K	1.49
323.2 K	1.47
333.1 K	1.43
343 K	1.39
353.1 K	1.36

C1CCCCC1 [cyclohexane] + CCCCC[n+]1ccccc1.O=S(=O)([N-]S(=O)(=O)C(F)(F)F)C(F)(F)F
Details	activity coefficient
303.2 K	7.35
312.7 K	6.67
323.4 K	5.91
333.3 K	5.3
343.3 K	4.66
353.3 K	4.06

C1CCCCC1 [cyclohexane] + CCCC[n+]1ccccc1.O=S(=O)([N-]S(=O)(=O)C(F)(F)F)C(F)(F)F
Details	activity coefficient
302.9 K	9.66
312.4 K	8.64
323.2 K	7.88
333.2 K	6.7
343.3 K	5.61
353.4 K	4.72

C1CCCCC1 [cyclohexane] + CC[n+]1ccccc1.O=S(=O)([N-]S(=O)(=O)C(F)(F)F)C(F)(F)F
Details	activity coefficient
302.8 K	11.4
313.3 K	9.56
323.1 K	8.04
333 K	6.76
342.9 K	5.63
353 K	4.65

CCO [ethanol] + CCCCC[n+]1ccccc1.O=S(=O)([N-]S(=O)(=O)C(F)(F)F)C(F)(F)F
Details	activity coefficient
302.8 K	2.09
313.5 K	1.86
323.4 K	1.67
333.3 K	1.5
343.2 K	1.35
353.4 K	1.19

CCO [ethanol] + CCCC[n+]1ccccc1.O=S(=O)([N-]S(=O)(=O)C(F)(F)F)C(F)(F)F
Details	activity coefficient
302.5 K	2.67
313.4 K	2.26
323.1 K	2.02
333.1 K	1.8
343.1 K	1.61
352.9 K	1.45

CCO [ethanol] + CC[n+]1ccccc1.O=S(=O)([N-]S(=O)(=O)C(F)(F)F)C(F)(F)F
Details	activity coefficient
302.5 K	2.63
313.1 K	2.36
323 K	2.13
332.9 K	1.91
342.9 K	1.71
353 K	1.54

CCc1ccccc1 [ethylbenzene] + CCCCC[n+]1ccccc1.O=S(=O)([N-]S(=O)(=O)C(F)(F)F)C(F)(F)F
Details	activity coefficient
303.1 K	1.93
312.8 K	1.95
323.4 K	1.96
333.4 K	1.98
343.3 K	1.99
353.5 K	2

CCc1ccccc1 [ethylbenzene] + CCCC[n+]1ccccc1.O=S(=O)([N-]S(=O)(=O)C(F)(F)F)C(F)(F)F
Details	activity coefficient
302.8 K	2.74
312.6 K	2.75
323.3 K	2.77
333.2 K	2.77
343.2 K	2.78
353.3 K	2.78

CCc1ccccc1 [ethylbenzene] + CC[n+]1ccccc1.O=S(=O)([N-]S(=O)(=O)C(F)(F)F)C(F)(F)F
Details	activity coefficient
303.4 K	3.34
313.1 K	3.36
323.2 K	3.37
333.1 K	3.39
343 K	3.4
353.1 K	3.41

CCCCCCC [heptane] + CCCCC[n+]1ccccc1.O=S(=O)([N-]S(=O)(=O)C(F)(F)F)C(F)(F)F
Details	activity coefficient
303.2 K	16.5
312.7 K	14.6
323.4 K	12.6
333.3 K	11
343.3 K	9.35
353.3 K	7.98

CCCCCCC [heptane] + CCCC[n+]1ccccc1.O=S(=O)([N-]S(=O)(=O)C(F)(F)F)C(F)(F)F
Details	activity coefficient
302.8 K	21.8
312.4 K	19.4
323.2 K	16.8
333.2 K	13.8
343.3 K	11.4
353.4 K	9.35

CCCCCCC [heptane] + CC[n+]1ccccc1.O=S(=O)([N-]S(=O)(=O)C(F)(F)F)C(F)(F)F
Details	activity coefficient
302.8 K	29.3
313.3 K	23.1
323.1 K	18.6
333 K	14.7
342.9 K	11.8
353 K	9.37

C=CCCCC [hex-1-ene] + CCCCC[n+]1ccccc1.O=S(=O)([N-]S(=O)(=O)C(F)(F)F)C(F)(F)F
Details	activity coefficient
302.9 K	6.22
312.8 K	5.46
322.6 K	4.84
333.4 K	4.17
343.4 K	3.55
353.4 K	3.08
